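Five compound concentrations were applied to cells in 96-well plates for 48 hours; endpoints were derived by simple linear interpolation of the resulting dose-response curve. Here, GI50 denotes the concentration required for 50% inhibition of growth. Definition used: TGI = concentration required for complete inhibition of growth.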
Assays:
Test in all cases: growth of human tumour cells (NCI), 48 h
[1] = system: SNB-19 CNS
[2] = system: COLO 205 colon
[3] = system: SNB-75 CNS
[4] = system: MOLT-4 leukemia
[5] = system: A498 renal
[6] = system: ACHN renal
[7] = system: U251 CNS
[8] = system: EKVX NSCLC
[9] = system: SK-MEL-2 melanoma
[10] = system: UO-31 renal

SMILES | TGI [1] [µM] | TGI [2] [µM] | TGI [3] [µM] | TGI [4] [µM] | TGI [5] [µM] | TGI [6] [µM] | TGI [7] [µM] | TGI [8] [µM] | TGI [9] [µM] | TGI [10] [µM] | GI50 [1] [µM] | GI50 [2] [µM] | GI50 [3] [µM] | GI50 [4] [µM] | GI50 [5] [µM] | GI50 [6] [µM] | GI50 [7] [µM] | GI50 [8] [µM] | GI50 [9] [µM] | GI50 [10] [µM]
CCCCCCCCCCCCCC(=O)OCC1OC(n2cc(F)c(=O)[nH]c2=O)C(N)C(OC(=O)CCCCCCCCCCCCC)C1O (stereo not given) | > 100 | > 100 | > 100 | > 100 | > 100 | > 100 | > 100 | > 100 | > 100 | > 100 |  |  |  |  |  |  |  |  |  | 
O=C(Cn1c(C(=O)c2ccccc2)nc2ccccc21)c1ccc(F)cc1 | > 100 | > 64.5 | > 100 | > 28.1 | > 43.7 | > 100 | > 100 | > 100 | > 74 | > 100 | 25.2 | 17.9 | 10.5 | 2.49 | 4.86 | > 59.7 | 4.11 | 21.1 | 17.4 | > 43.8
COc1cc(/C=C\c2ccc(OC(C)=O)cc2)cc(OC)c1OC | > 100 | 94.2 | 6.93 | > 100 | 78.4 | > 100 | > 100 | > 100 | > 100 | 28.7 |  |  |  |  |  |  |  |  |  | 
COC(=O)C1=C(C(=O)OC)C2OC1c1cc3ccccc3cc12 | 33.5 | 3.39 | 38.7 | 3.22 | 36.7 | 3.03 | 32.7 | 17.6 | 29.5 | 2.91 |  |  |  |  |  |  |  |  |  | 
CSc1ccc(C2=NN(C(C)=O)C(c3ccc(F)cc3)C2)cc1 (stereo not given) | 37 | 31.4 | 44.1 | 9.69 | 26.8 | 35.6 | 21.4 | 64.7 | 41.2 | 29.8 | 8.19 | 13.2 | 20 | 2.36 | 12.5 | 16.9 | 5.96 | 21.6 | 20.5 | 14.2
COc1ccc2c(c1)N(CCO)C1=C(C(=O)OC1)C2c1ccccc1 (stereo not given) | > 50 | 4.85 | > 50 | > 50 | 3.11 | > 50 | > 50 | > 50 | 4.74 | > 50 | 2.32 | 1.8 | 1.01 | 3.63 | 0.841 | 3.78 | 1.81 | 2.39 | 1.61 | 2.37
CN(O)C(=S)c1ccccc1 | > 100 | 1.75 | > 100 | 5.11 | 68.2 | 37.7 | > 100 | > 95.2 | > 33.1 | 21.6 |  |  |  |  |  |  |  |  |  | 
CC1CCc2c(c(CC3CC(=O)NC(=O)C3)nn2-c2ccccc2)C1 (stereo not given) | > 100 | > 100 | > 100 | > 100 | > 100 | > 100 | > 100 | > 100 | > 100 | > 100 |  |  |  |  |  |  |  |  |  | 
O=C(Nc1cccc(Cl)c1)c1cc(N=Nc2ccc([N+](=O)[O-])cc2Cl)ccc1O | > 100 | 11 | 20.5 | 4.4 | 4.51 | 6.46 | 7 | 6.57 | 4.04 | 6.08 | 3.07 | 3.19 | 2.65 | 1.74 | 1.94 | 2.3 | 1.93 | 2.16 | 1.81 | 2.16
CCOc1c(C#N)c2c(N)ncnc2n1C1OC(CO)C(O)C1O (stereo not given) | > 100 | 10 | > 76 | 15.1 | 49.2 | > 100 | > 100 | > 100 | 28.3 | > 40.3 | 9.1 | 2.17 | 5.61 | 2.95 | 4.23 | 2.95 | 3.21 | 4.74 | 8.61 | 2.86
CC[C@]12C=CCN3CC[C@@]4(c5ccc(OC)cc5N(C)[C@H]4[C@@](O)(C(=O)OC)[C@@H]1OC(=O)CCC(=O)N[C@H](Cc1c[nH]c4ccccc14)C(=O)OC)[C@@H]32 | 48.8 | 14.3 | 14.1 | > 100 | 30.8 | 52.7 | 24.9 | 35.7 | 37.3 | 13.7 | 4.74 | 3.47 | 2.23 | 3.25 | 9.29 | 13.4 | 8.08 | 10.7 | 17 | 2.97
O=C(Nc1nc(-c2ccc(Cl)cc2)nc2c1sc(=S)n2-c1ccccc1)C(F)(F)F | 37.5 | 32.6 | 3.49 | > 100 | 7.8 | 3.56 | 9.87 | 31.8 | 22.7 | 4.04 | 7.18 | 3.54 | 1.68 | > 100 | 1.77 | 1.81 | 3.23 | 3.83 | 5.8 | 1.87
N#Cc1cc(NC(=O)c2ccccc2)c(=O)n2c1[nH]c1ccccc12 | 74.7 | > 100 | 68.3 | > 100 | 85.8 | > 100 | > 100 | > 100 | 89.8 | 42.9 |  |  |  |  |  |  |  |  |  | 
CCOC(=O)c1cc(-c2ccc(OC)c(OC)c2)[nH]c1N/N=C/c1c(Cl)cccc1Cl | 34.2 | > 100 | 5.94 | > 80.9 | 7.77 | 16.2 | 18.2 | 19.9 | 48.6 | 37.6 | 2.6 | 2.9 | 1.85 | 3.27 | 1.03 | 3.23 | 2.15 | 5.37 | 7.28 | 4.32

Source: PubChem BioAssay (NCI)
